Source: ChEMBL document CHEMBL4680278 (J Med Chem, 2020)

Experiments:
[1] = Cmax in human plasma at 14+/- 15 mg, po; type: ADME, cell-free; set-up: route oral, dose 14 mg; settings: 14 mg
[2] = Bioavailability in dog at 180 mg; type: ADME, organism-based, Canis lupus familiaris; settings: in vivo
[3] = biological target: T1, Alpha-2B adrenergic receptor (Homo sapiens, UniProt P18089); assay: Inhibition of alpha2B receptor (unknown origin)
T1 sequence (P18089 whole entry): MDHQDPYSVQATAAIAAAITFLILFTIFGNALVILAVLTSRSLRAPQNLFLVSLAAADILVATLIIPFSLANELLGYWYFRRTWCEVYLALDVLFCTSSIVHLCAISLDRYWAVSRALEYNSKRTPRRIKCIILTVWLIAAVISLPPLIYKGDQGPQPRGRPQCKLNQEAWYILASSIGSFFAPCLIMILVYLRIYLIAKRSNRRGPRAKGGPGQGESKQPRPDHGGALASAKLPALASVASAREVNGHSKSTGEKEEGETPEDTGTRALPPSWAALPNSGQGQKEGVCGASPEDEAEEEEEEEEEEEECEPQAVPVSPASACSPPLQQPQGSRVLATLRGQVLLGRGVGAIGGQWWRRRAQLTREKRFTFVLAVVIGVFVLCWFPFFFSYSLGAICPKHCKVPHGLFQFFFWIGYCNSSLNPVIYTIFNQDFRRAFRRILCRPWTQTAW

[4] = biological target: T2, 5-hydroxytryptamine receptor 1A (Homo sapiens, UniProt P08908); assay: Displacement of [3H]8-OH-DPAT from human 5-HT1a receptor expressed in CHO cells incubated for 30 mins by liquid scintillation counting method
T2 sequence (P08908 whole entry): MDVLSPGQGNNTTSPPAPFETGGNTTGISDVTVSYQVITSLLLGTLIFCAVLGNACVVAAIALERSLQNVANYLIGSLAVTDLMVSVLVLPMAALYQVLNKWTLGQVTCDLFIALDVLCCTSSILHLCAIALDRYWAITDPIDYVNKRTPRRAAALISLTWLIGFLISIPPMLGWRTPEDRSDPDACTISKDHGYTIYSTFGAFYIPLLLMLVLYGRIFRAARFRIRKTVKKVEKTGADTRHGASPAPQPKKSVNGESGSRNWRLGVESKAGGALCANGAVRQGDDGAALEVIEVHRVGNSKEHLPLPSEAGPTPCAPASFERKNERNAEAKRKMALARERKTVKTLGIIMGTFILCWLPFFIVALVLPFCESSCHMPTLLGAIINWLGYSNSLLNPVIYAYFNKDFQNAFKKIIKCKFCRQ

[5] = Toxicity in pig assessed as mean arterial blood pressure drop at 50 mg/kg, iv administered for 15 mins by pulse oximetry relative to baseline; type: organism-based, Sus scrofa; settings: in vivo, 0.25 h
[6] = biological target: T3, Alpha-2C adrenergic receptor (Homo sapiens, UniProt P18825); assay: Inhibition of alpha2C receptor (unknown origin)
T3 sequence (P18825 whole entry): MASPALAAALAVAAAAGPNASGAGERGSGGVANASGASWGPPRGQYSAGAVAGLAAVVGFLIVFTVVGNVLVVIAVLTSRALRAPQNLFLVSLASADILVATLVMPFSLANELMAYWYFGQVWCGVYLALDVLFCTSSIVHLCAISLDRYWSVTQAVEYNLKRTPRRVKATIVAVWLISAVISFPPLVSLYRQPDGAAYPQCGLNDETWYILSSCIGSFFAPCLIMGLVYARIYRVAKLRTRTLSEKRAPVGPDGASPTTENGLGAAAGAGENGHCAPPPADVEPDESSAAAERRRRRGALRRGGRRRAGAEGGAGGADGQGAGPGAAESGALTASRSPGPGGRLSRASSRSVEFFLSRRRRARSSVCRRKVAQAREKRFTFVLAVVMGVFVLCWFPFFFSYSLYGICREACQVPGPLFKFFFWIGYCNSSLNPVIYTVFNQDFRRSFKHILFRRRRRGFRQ

[7] = Protein binding in human plasma incubated for 20 to 24 hrs; type: ADME, cell-free; settings: time 20-24 hrs, read-out: PPB (converted)
[8] = Half-life in human at 10 mg/kg, po BID administered for 6 weeks measured weekly for 15 weeks by GC/MS analysis; type: ADME, organism-based; settings: in vivo
[9] = Half-life in human at 20 mg via smoking measured after 0.05 to 72 hrs by gas chromatograph mass spectrometry; type: ADME; settings: in vivo, inhaled or intranasal, time 0.05-72 hrs
Cytochrome P450 1B1 = biological target: T4, Cytochrome P450 1B1 (Homo sapiens, UniProt Q16678); assay: Competitive inhibition of human recombinant CYP1B1 using 7-Ethoxyresorufin as substrate by Lineweaver-Burk plot analysis; type: ADME; settings: read-out: Ki(app)
T4 sequence (Q16678 whole entry): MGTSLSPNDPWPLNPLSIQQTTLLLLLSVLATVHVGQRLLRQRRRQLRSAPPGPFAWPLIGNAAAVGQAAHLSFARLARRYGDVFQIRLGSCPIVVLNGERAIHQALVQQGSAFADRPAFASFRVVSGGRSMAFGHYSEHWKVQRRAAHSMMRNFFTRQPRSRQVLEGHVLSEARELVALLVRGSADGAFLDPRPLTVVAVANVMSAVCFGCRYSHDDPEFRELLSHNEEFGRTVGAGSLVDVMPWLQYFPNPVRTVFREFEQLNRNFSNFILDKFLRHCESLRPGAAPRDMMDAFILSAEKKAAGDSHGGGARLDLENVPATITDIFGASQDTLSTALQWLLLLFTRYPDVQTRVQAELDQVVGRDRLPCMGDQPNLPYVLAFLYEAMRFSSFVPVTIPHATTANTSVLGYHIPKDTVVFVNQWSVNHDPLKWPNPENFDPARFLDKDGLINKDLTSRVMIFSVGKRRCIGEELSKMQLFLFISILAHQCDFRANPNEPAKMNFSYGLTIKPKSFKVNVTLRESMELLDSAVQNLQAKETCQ

[10] = Elimination half-life in human at 20 mg using aerosol spray measured for 6 weeks; type: ADME; settings: in vivo, inhaled_or_intranasal, 1008 h
Cytochrome P450 2C11 = biological target: T5, Cytochrome P450 2C11 (Rattus norvegicus, UniProt P08683); assay: Competitive inhibition of CYP2C11 in rat liver microsomes; type: ADME
T5 sequence (P08683 whole entry): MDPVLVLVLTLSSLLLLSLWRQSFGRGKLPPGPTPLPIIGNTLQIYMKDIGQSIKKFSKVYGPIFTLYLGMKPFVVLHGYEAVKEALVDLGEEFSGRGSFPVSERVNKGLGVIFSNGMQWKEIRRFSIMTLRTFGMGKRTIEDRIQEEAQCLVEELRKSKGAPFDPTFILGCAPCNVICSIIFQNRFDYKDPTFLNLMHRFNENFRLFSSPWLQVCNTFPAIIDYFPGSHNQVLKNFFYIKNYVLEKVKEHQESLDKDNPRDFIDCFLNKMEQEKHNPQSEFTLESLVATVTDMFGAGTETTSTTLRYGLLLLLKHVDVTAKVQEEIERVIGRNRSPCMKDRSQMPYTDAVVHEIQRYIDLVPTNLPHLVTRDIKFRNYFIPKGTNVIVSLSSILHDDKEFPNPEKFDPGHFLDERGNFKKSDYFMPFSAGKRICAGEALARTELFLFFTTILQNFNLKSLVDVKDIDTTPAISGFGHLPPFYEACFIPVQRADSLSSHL

Histamine H3 receptor = Histamine H3 receptor (Homo sapiens, UniProt Q9Y5N1); assay: Inhibition of histamine H3 receptor (unknown origin)
Chain of Histamine H3 receptor (Q9Y5N1 whole entry): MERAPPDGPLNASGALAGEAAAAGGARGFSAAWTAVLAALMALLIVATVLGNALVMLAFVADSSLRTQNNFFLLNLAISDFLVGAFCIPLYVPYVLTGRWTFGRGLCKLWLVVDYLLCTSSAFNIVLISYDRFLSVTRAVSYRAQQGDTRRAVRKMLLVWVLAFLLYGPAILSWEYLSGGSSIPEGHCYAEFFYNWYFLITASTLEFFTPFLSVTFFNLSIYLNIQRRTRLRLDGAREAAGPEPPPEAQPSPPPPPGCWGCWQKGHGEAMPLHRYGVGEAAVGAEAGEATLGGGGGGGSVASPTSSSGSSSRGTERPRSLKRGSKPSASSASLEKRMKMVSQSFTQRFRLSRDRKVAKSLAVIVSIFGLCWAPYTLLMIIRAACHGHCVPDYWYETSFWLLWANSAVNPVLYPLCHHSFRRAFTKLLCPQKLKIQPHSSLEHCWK

## C=C(C)[C@@H]1CCC(C)=C[C@H]1c1c(O)cc(CCCCC)cc1O [CANNABIDIOL]
[1]
  Cmax: 0.9 nM
[2]
  bioavailability: 13%
[3]
  Ki: 3.2 µM
[4]
  EC50: 8 µM
[5]
  Activity: < 70%
[6]
  Ki: 3.7 µM
[7]
  fraction unbound: 0.1
[8]
  half-life: 2880 min
[9]
  half-life: 1860 min
Cytochrome P450 1B1
  Ki: 3.63 µM
[10]
  beta t1/2: 2 h
Cytochrome P450 2C11
  Ki: 20.7 µM
Histamine H3 receptor
  Ki: 3.1 µM
